The results in this text go back to patent publication US12312330B2, “1-((S)-1-(3-chloro-5-fluoro-2-((4-(1h-pyrazol-1-yl)-2-methylquinolin-8-yloxy)methyl)phenyl)ethyl)-imidazolidine-2,4-dione derivatives and related compounds as bradykinin (BK) B2 receptor antagonist for treating skin diseases” (Pharvaris GmbH, priority 2019, dated 2025).

For this assay, the target named is T1, human bradykinin B2 receptor (hB2R) (Homo sapiens, UniProt P30411).
T1 sequence (P30411 1-391): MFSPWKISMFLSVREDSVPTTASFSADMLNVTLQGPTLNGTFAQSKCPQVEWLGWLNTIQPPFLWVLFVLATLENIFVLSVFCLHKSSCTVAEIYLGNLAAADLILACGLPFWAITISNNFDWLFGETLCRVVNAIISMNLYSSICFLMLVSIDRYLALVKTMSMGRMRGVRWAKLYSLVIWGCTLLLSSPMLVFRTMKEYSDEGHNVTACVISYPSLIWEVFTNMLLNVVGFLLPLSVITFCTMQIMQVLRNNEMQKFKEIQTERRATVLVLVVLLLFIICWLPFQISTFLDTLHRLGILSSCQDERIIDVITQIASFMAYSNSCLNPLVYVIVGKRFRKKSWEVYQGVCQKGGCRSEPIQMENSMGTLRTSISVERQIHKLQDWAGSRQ
Nature of the assay: human bradykinin B2 receptor calcium mobilization (hB2R-CaM) assay. To be noted: antagonism of bradykinin (EC80) induced calcium mobilization, B2 Bradykinin Receptor Stable Cell Line HTS041C, 25 min pre-incubation; read-out: IC50-value towards human bradykinin B2 receptor (hB2R). The class given is cell-based. From the text:
The following cell-based human bradykinin B2 receptor calcium mobilization (hB2R-CaM) assay was used to determine the antagonistic activity of compounds selected from the example compounds Nos. 1 to 107 towards human bradykinin B2 receptor (hB2R). The assay is defined herein as a standard in vitro B2 receptor activity assay, which can be used to determine IC50 values of the compounds according to the present invention, e. g. the compounds shown in Examples 1-13.
The antagonistic activity of compounds according to the present invention was investigated with the hB2R-CaM assay using the B2 Bradykinin Receptor Stable Cell Line HTS041C (Eurofins, St. Charles MO) and the FLIPR Calcium 6 Assay Kit (Molecular Devices, Wokingham, UK) according to the instructions of the providers. CaM assay measurements were performed with a Flexstation 3 System (Molecular Devices) which allows the precise addition of compounds (B2R antagonists) and bradykinin (B2R agonist) to the cells and adjacent continuous recording of the time-dependent CaM assay signals.
HTS041C cells were cultured in high glucose DMEM cell culture medium (Lonza) supplemented with 10% heat-inactivated FBS (PAN Biotech), 10 mM HEPES, Penicillin/Streptomycin (200 U/mL, 200 μg/mL), lx non-essential amino acids (Lonza), and 250 μg/mL G418 (Invivogen) in cell incubator at 37° C. in a 5% CO2 atmosphere. One day before the CaM assay experiments cells were seeded in 200 μL DMEM cell culture medium with reduced FBS (5%) and without G418 on clear bottom black 96 well plates (ThermoFisher #165305). Cell starvation was carried out by incubation (37° C., 5% CO2) of 70.000 cells/well for 24 h to 28 h. Immediately prior calcium dye-loading the medium was carefully aspirated and cells were washed with Hank's balanced salt solution (HBSS, Gibco) containing Ca^2+, Mg^2+ and 20 mM HEPES, adjusted to pH 7.4 (HBSS+).
For calcium dye-loading one FLIPR 6 assay aliquot was dissolved in 20 mL HBSS+. 150 μL of the dye loading solution was added to cell plate and incubated for 120 min at 37° C. and 5% CO2. After dye loading the cell plate was immediately transferred to the pre-warmed (37° C.) Flexstation 3 System for CaM assaying.
Freshly prepared compound (B2 receptor antagonists) dilution series (8 pt, n=2) and bradykinin (B2 receptor agonist) solution in non-binding plates (Costar) were transferred to the Flexstation System (source plate) shortly before starting the experiment. Bradykinin was added in EC80 concentration determined in n>3 preliminary experiments with 8 pt concentration response curves (n=8)). CaM assay was executed by Flexstation 3 System starting with recording of calcium-sensitive dye fluorescence in bottom-read Flex modus with ex/em=485 nm/525 nm, cut off(em)=515 nm After 20 s, 50 μL of 4-fold concentrated compound dilutions were added to the cells resulting in a final DMSO (Sigma) concentration of 0.1% in the cell plate. CaM signals were monitored for 80 s after additions for detection of potential agonistic activities. Prior to bradykinin stimulus compound- and vehicle-treated cells were incubated for 25 min at 37° C. within the Flexstation System. Then 50 μL of a 5-fold concentrated bradykinin solution (HBSS+, 0.1% DMSO) was added to trigger CaM signals (Read out: Max-Min values) which were measured for 80 s post bradykinin stimulus.
IC50 determinations were performed by 4 parameter logistic model curve fitting of the 8 pt (n=2) compound concentration response curves using XLFIT (IDBS) software.
In general terms: Calcium flux is commonly read through the fluorescence of an indicator in the cells.

For the molecule `Cc1cc(-c2ncnn2C)c2cccc(OCc3c(Cl)cc(F)cc3[C@H](C)N3CC(=O)N[C@H](C)C3=O)c2n1` [compound 75], the IC50 (commonly the concentration that inhibits the measured activity by half) was 11 to 100 nM. Under `Cc1cc(-n2cc(F)cn2)c2cccc(OCc3c(Cl)cc(F)cc3[C@H](C)N3CCN(C(C)C)CC3=O)c2n1` [compound 76] stands no more than 10 nM; under `Cc1cc(-n2cc(F)cn2)c2cccc(OCc3c(Cl)cc(F)cc3[C@H](C)N3CCN[C@H](C)C3=O)c2n1` [compound 77], 11 to 100 nM.

On to `CC(=O)N1CCN([C@@H](C)c2cc(F)cc(Cl)c2COc2cccc3c(-n4cc(F)cn4)cc(C)nc23)C(=O)C1` [compound 78], for which the IC50 was 11 to 100 nM. As for `Cc1cc(-n2cc(F)cn2)c2cccc(OCc3c(Cl)cc(F)cc3[C@H](C)N3CCN(C(=O)OC(C)(C)C)[C@H](C)C3=O)c2n1` [compound 79], the figure is 101 to 500 nM; as for `Cc1cc(-n2cc(F)cn2)c2cccc(OCc3c(Cl)cc(F)cc3[C@H](C)N3CCN(C(=O)OC(C)(C)C)[C@@H](C)C3=O)c2n1` [compound 80], 101 to 500 nM; as for `CCN1CCN([C@@H](C)c2cc(F)cc(Cl)c2COc2cccc3c(-n4cc(F)cn4)cc(C)nc23)C(=O)C1` [compound 81], no more than 10 nM. For `Cc1cc(-n2cc(F)cn2)c2cccc(OCc3c(Cl)cc(F)cc3[C@H](C)N3C[C@H](O)CCC3=O)c2n1` [compound 82], the IC50 was no more than 10 nM. For the molecule `Cc1cc(-c2ncnn2C)c2cccc(OCc3c(Cl)cc(F)cc3[C@H](C)N3C[C@H](O)CCC3=O)c2n1` [compound 83], the IC50 lay in the range of 11 to 100 nM. As to `Cc1cc(-n2cc(F)cn2)c2cccc(OCc3c(Cl)cc(F)cc3[C@H](C)N3CCC[C@@H](O)C3=O)c2n1` [compound 84], the IC50 was in the range of 11 to 100 nM. On to `Cc1cc(-c2ncnn2C)c2cccc(OCc3c(Cl)cc(F)cc3[C@H](C)N3CCC[C@H](O)C3=O)c2n1` [compound 85], for which the IC50 was 101 to 500 nM. As for `Cc1cc(-n2cc(F)cn2)c2cccc(OCc3c(Cl)cc(F)cc3[C@H](C)N3C[C@H](C)NC(=O)C3=O)c2n1` [compound 86], the figure is no more than 10 nM. In the case of `Cc1cc(-n2cc(F)cn2)c2cccc(OCc3c(Cl)cc(F)cc3[C@H](C)N3CCN(C)C(=O)C3=O)c2n1` [compound 87], the IC50 is no more than 10 nM.

Take `Cc1cc(-c2ncnn2C)c2cccc(OCc3c(Cl)cc(F)cc3[C@H](C)N3CC[C@@H](OC(F)F)C3=O)c2n1` [compound 88]: the IC50 was no more than 10 nM.

For `Cc1cc(-n2cc(F)cn2)c2cccc(OCc3c(Cl)cc(F)cc3[C@H](C)N3CC[C@@H](OC(F)F)C3=O)c2n1` [compound 89], the IC50 lay within 11 to 100 nM. On to `Cc1cc(-n2cc(F)cn2)c2cccc(OCc3c(Cl)cc(F)cc3[C@H](C)N3C(=O)[C@H](C)NC(=O)[C@@H]3C)c2n1` [compound 90], for which the IC50 lay in the range of 11 to 100 nM. In the case of `Cc1cc(-c2ncnn2C)c2cccc(OCc3c(Cl)cc(F)cc3[C@H](C)N3CC[C@H](F)C3=O)c2n1` [compound 91], the IC50 is no more than 10 nM. On to `Cc1cc(-n2cc(F)cn2)c2cccc(OCc3c(Cl)cc(F)cc3[C@H](C)N3CCN(C)[C@@H](C)C3=O)c2n1` [compound 92], for which the IC50 is no more than 10 nM. As to `Cc1cc(-n2cc(F)cn2)c2cccc(OCc3c(Cl)cc(F)cc3[C@H](C)N3CCN(C)[C@H](C)C3=O)c2n1` [compound 93], the IC50 is no more than 10 nM. Turning to `Cc1cc(-n2cc(F)cn2)c2cccc(OCc3c(Cl)cc(F)cc3[C@H](C)N3CCN[C@@H](C)C3=O)c2n1` [compound 94], the IC50 is no more than 10 nM. As for `Cc1cc(-n2cc(F)cn2)c2cccc(OCc3c(Cl)cc(F)cc3[C@H](C)N3C[C@H](O)CC3=O)c2n1` [compound 95], the figure is 11 to 100 nM; as for `Cc1cc(-c2ncnn2C)c2cccc(OCc3c(Cl)cc(F)cc3[C@H](C)N3C[C@H](O)CC3=O)c2n1` [compound 96], 11 to 100 nM. Turning to `Cc1cc(-n2cc(F)cn2)c2cccc(OCc3c(Cl)cc(F)cc3[C@H](C)N3C[C@@H](C)NC(=O)C3=O)c2n1` [compound 97], the IC50 was no more than 10 nM. Turning to `Cc1cc(-c2ncnn2C)c2cccc(OCc3c(Cl)cc(F)cc3[C@H](C)N3C[C@@H](C)NC(=O)C3=O)c2n1` [compound 98], the IC50 is no more than 10 nM. As for `Cc1cc(-n2cc(F)cn2)c2cccc(OCc3c(Cl)cc(F)cc3[C@H](C)N3C(=O)[C@@H](C)NC(=O)[C@@H]3C)c2n1` [compound 99], the figure is 11 to 100 nM; as for `Cc1cc(-n2cc(F)cn2)c2cccc(OCc3c(Cl)cc(F)cc3[C@H](C)N3CCNC(C)(C)C3=O)c2n1` [compound 100], 11 to 100 nM; as for `Cc1cc(-c2ncnn2C)c2cccc(OCc3c(Cl)cc(F)cc3[C@H](C)N3CC(=O)NC(C)(C)C3=O)c2n1` [compound 101], 11 to 100 nM.

In the case of `Cc1cc(-n2cc(F)cn2)c2cccc(OCc3c(Cl)cc(F)cc3[C@H](C)N3CC(=O)NC(C)(C)C3=O)c2n1` [compound 102], the IC50 lay within 11 to 100 nM.

In the case of `Cc1cc(-n2cc(F)cn2)c2cccc(OCc3c(Cl)cc(F)cc3[C@H](C)N3CC(=O)N(C)[C@H](C)C3=O)c2n1` [compound 103], the IC50 lay within 11 to 100 nM. Under `Cc1cc(-c2ncnn2C)c2cccc(OCc3c(Cl)cc(F)cc3[C@H](C)N3CC(=O)N(C)[C@H](C)C3=O)c2n1` [compound 104] stands no more than 10 nM. Under `Cc1cc(-c2ncnn2C)c2cccc(OCc3c(Cl)cc(F)cc3[C@H](C)N3C(=O)[C@@H](C)NC(=O)[C@H]3C)c2n1` [compound 105] stands 11 to 100 nM; under `Cc1cc(-c2ncnn2C)c2cccc(OCc3c(Cl)cc(F)cc3[C@H](C)N3C(=O)[C@H](C)NC(=O)[C@H]3C)c2n1` [compound 106], 11 to 100 nM; under `CCN1C(=O)CN([C@@H](C)c2cc(F)cc(Cl)c2COc2cccc3c(-n4cc(F)cn4)cc(C)nc23)C1=O` [compound 107], 11 to 100 nM.
